Assay results published in patent US12097210B2, “Concomitant administration of glucocorticoid receptor modulators and CYP3A inhibitors” (Corcept Therapeutics, Inc., priority 2017, dated 2024).

What was measured:
[1] = Example 1: safety (adverse events, physical examinations, clinical laboratory tests, ECG); format: in vivo, human; conditions: mifepristone 300 mg single dose with ketoconazole for 14 days
Method: Subjects in both cohorts returned to the study center on Day 15 for safety monitoring, and completion of the Termination Visit procedures, followed by discharge from the study. Safety was assessed by spontaneously reported adverse events, physical examinations, and routine clinical laboratory tests. To the extent possible, any adverse events deemed study drug-related and that were ongoing at the time of discharge from the study were followed-up to resolution or until a determination is made that the unresolved event was stable.

[2] = Example 2: effect of a 400 mg single dose of ketoconazole on PK of an 8-day regimen of 300 mg or 600 mg OD mifepristone after moderate fat breakfast; format: in vivo, human; conditions: for increase in AUC0-24, Day 8 relative to Day 7 / increase in Cmax, Day 8 relative to Day 7: 400 mg ketoconazole on Day 8
Method: This was an open-label study in healthy male subjects. […] The 400 mg single dose of ketoconazole was given to all subjects on day 8.
METHODOLOGY: Twelve subjects were enrolled, six in Cohort 1 and 6 in Cohort 2.
Subjects were discharged on Day 11.
Subjects were discharged on Day 11. Subjects in both cohorts returned to study center on Day 13 for safety monitoring, collection of the 120-hour PK draw, and completion of the Termination Visit procedures, followed by discharge from the study. To the extent possible, any adverse events deemed study drug-related and that were ongoing at the time of discharge from the study were followed-up to resolution or until a determination was made that the unresolved event was stable.
DIAGNOSIS AND MAIN […] FOR INCLUSION: Healthy male volunteers between the ages of 18 to 45 years of age with a body mass index (BMI) ranging between 19 and 32 kg/m2 and a weight of at least 60 kg (132 lbs) were enrolled. Subjects had no clinically significant abnormal findings on the physical examination, ECG, blood pressure, heart rate, medical history, or clinical laboratory results during screening. The QTc interval at screening was less than 450 msec.
DURATION OF TREATMENT: Up to a total of 28 days, including up to 2 weeks screening, dosing on Days 1-8, safety observation, and PK sample collection through Day 13.
Additionally, comparisons were made between the PK results of cohort 1 and 2. Pharmacokinetic parameters Cmax, T½ and total AUC were calculated for plasma concentrations of ketoconazole following the single dose on Day 8. Descriptive statistics (count, mean, median, standard deviation, minimum, maximum, and % coefficient of variation) were provided. Ketoconazole concentrations were listed and summarized. GM means of Cmax and total AUC were compared for the single dose in this study to the combined data of reported 400 mg single doses of ketoconazole of healthy subjects from the literature.

[3] = Example 3: cross-study comparison of exposure with historic study of 1200 mg mifepristone OD; format: in vivo, human
[4] = Example 3: safety (adverse events, laboratory tests, vital signs, ECGs); format: in vivo, human
Method: A single dose of ketoconazole was administered on Day −1.

clinical = conditions: male, human, in vivo
Method: This study was conducted in accordance with Good Clinical Practice under the guidance of an Institutional Review Board and in accordance with applicable local legal and regulatory requirements.
KORLYM® was supplied in 300 mg tablets for oral administration. Three or four tablets were administered once daily (OD) to provide either the 900 mg or 1200 mg per day dose.
Itraconazole was supplied • in 100 mg capsules for oral administration. Two capsules were administered once daily (OD) to provide the 200 mg per day dose.
All drug administrations were oral and were given after the morning meal.
The inclusion criteria required, among other criteria, that the subjects be healthy male subjects between the ages of 18 and 65, weigh more than 110 pounds, and have a body mass index (BMI) of 18 to 32 kg/m^2. The design included a Screening Period of up to 3 weeks (subjects were screened at a time between days −21 to −1 prior to the first treatment period), three 14-day treatment periods, and a Follow-Up (FU) Period of 14 days for safety observation.
Subjects meeting the inclusion criteria (n=22) were administered drug daily and blood samples were taken on the days indicated below during Periods 1-3 and on day 43 of the follow-up period.
Subjects presented at the Clinical Research Unit (CRU) after an 8-hour overnight fast, then predose PK samples were taken and other evaluations (predose electrocardiograms (ECGs), plasma cortisol and ACTH, serum chemistry tests) were performed. […] On the specific days indicated above, additional blood draws for determining 24-hour PK profiles were performed.
Pharmacokinetic (PK) parameters measured and computed included AUC (area under the concentration−time curve), AUC0-24 (AUC values from time 0 to 24 hours postdose), Cmax (maximum concentration), and Css (average steady-state concentration, calculated as AUC0-24/24).

[5] = MIFE 300 mg/d with vs without 400 mg Keto
[6] = MIFE 600 mg/d with vs without 400 mg Keto
[7] = MIFE 600 vs 300 mg/d, no ketoconazole
[8] = MIFE 600 vs 300 mg/d, with 400 mg Keto
[9] = Test: Day 17, 600 mg mifepristone OD + 200 mg Ketoconazole BID, Reference: historic study Day 7, 1200 mg mifepristone OD alone, after 34% fat meal
[10] = mifepristone 600 mg OD Days 1-17, ketoconazole 200 mg BID Days 13-17

**Q.** For `CC#C[C@]1(O)CC[C@H]2[C@@H]3CCC4=CC(=O)CCC4=C3[C@@H](c3ccc(N(C)C)cc3)C[C@@]21C` [Mifepristone, 11β-(4-dimethylaminophenyl)-17β-hydroxy-17α-(1-propynyl)-estra-4,9-dien-3-one], which “subjects experiencing at least one treatment emergent adverse event (TEAE)” value ([1]; 12 subjects) is on record?
**A.** The value was 25%.

**Q.** What about the “SAE or AE resulting in discontinuation” value [1] of the same molecule?
**A.** Its value is “No subject experienced an SAE or an AE that resulted in discontinuation from the study”.

**Q.** What about the “TEAEs considered by the investigator to be related to the drug” value [1] of the same molecule?
**A.** Its value is “No TEAE was considered by the investigator to be related to Mifepristone”.

**Q.** What about the “changes in ECG parameters” value [1] of the same molecule?
**A.** Its value is “No clinically significant changes in any ECG parameter”.

**Q.** What about the “changes in laboratory test results” value [1] of the same molecule?
**A.** The value was “Minimal changes in laboratory test results”.

**Q.** What about the “increase in AUC0-24, Day 8 relative to Day 7” value ([2]; Cohort 1, 300 mg OD) of the same molecule?
**A.** Its value is 25%.

**Q.** What about the “increase in Cmax, Day 8 relative to Day 7” value ([2]; Cohort 1, 300 mg OD) of the same molecule?
**A.** Its value is 20%.

**Q.** What about the “increase in AUC0-24, Day 8 relative to Day 7” value ([2]; Cohort 2, 600 mg OD) of the same molecule?
**A.** Its value is 28%.

**Q.** And the “increase in Cmax, Day 8 relative to Day 7” value ([2]; Cohort 2, 600 mg OD)?
**A.** Its value is 39%.

**Q.** What about the “AUC0-24 greater at 600 mg OD than at 300 mg OD” value ([2]; Day 8 with 400 mg ketoconazole) of the same molecule?
**A.** Its value is 52%.

**Q.** And the “Cmax greater at 600 mg OD than at 300 mg OD” value ([2]; Day 8 with 400 mg ketoconazole)?
**A.** The value was 65%.

**Q.** What about the “half-life greater at 600 mg OD than at 300 mg OD” value ([2]; Day 8 with 400 mg ketoconazole) of the same molecule?
**A.** The value was 13%.

**Q.** What about the “Mean Ratio AUCτ, C1 Day 8/Day 7” value [2, 5] of the same molecule?
**A.** The value was 1.25.

**Q.** And the “Mean Ratio Cmax, C1 Day 8/Day 7” value [2, 5]?
**A.** The value was 1.19.

**Q.** What about the “Mean Ratio AUCτ, C2 Day 8/Day 7” value [2, 6] of the same molecule?
**A.** The value was 1.28.

**Q.** And the “Mean Ratio Cmax, C2 Day 8/Day 7” value [2, 6]?
**A.** Its value is 1.39.

**Q.** What about the “Mean Ratio AUCτ, Day 7 C2/C1” value [2, 7] of the same molecule?
**A.** The value was 1.48.

**Q.** What about the “Mean Ratio Cmax, Day 7 C2/C1” value [2, 7] of the same molecule?
**A.** The value was 1.42.

**Q.** What about the “Mean Ratio AUCτ, Day 8 C2/C1” value [2, 8] of the same molecule?
**A.** The value was 1.52.

**Q.** And the “Mean Ratio Cmax, Day 8 C2/C1” value [2, 8]?
**A.** The value was 1.65.

**Q.** What about the “exposures as percent of those observed following the highest labeled dose of mifepristone (1200 mg daily)” value ([3]; 600 mg mifepristone OD + 200 mg ketoconazole BID) of the same molecule?
**A.** Its value is “approximately 85%”.

**Q.** What about the “Ratio % Test/Ref, AUC0-24” value [3, 9] of the same molecule?
**A.** The value was 87.27%.

**Q.** What about the “Ratio % Test/Ref, Cmax” value [3, 9] of the same molecule?
**A.** The value was 84.64%.

**Q.** And the “discontinuation due to AEs” value ([4]; during the mifepristone-only treatment period (moderate hypertension; moderate bilateral rash))?
**A.** The value was “Two subjects discontinued due to AEs”.

**Q.** What about the “subjects with at least one TEAE” value ([4]; during the mifepristone/ketoconazole treatment period) of the same molecule?
**A.** The value was 57.1%.

**Q.** What about the “subjects with at least one TEAE” value ([4]; during treatment with mifepristone alone (600 mg OD)) of the same molecule?
**A.** The value was 55.6%.

**Q.** And the “deaths or SAEs” value [4, 10]?
**A.** The value was “No deaths or SAEs were reported”.

**Q.** And the “severe TEAEs” value [4, 10]?
**A.** The value was “No severe TEAEs were reported”.

**Q.** What about the AUC(0-t) (clinical; 900 mg) of the same molecule?
**A.** Its AUC(0-t) is 59600 ng·h/mL.

**Q.** And the Cmax, Geometric Means (clinical; 900 mg)?
**A.** Its Cmax, Geometric Means is 3550 ng/mL.

**Q.** And the “AUC(0-24), Geometric Means” value (clinical; 1200 mg)?
**A.** The value was 67,700.

**Q.** What about the Cmax (clinical; 1200 mg) of the same molecule?
**A.** Its Cmax is 4360 ng/mL.
